Results as given in article PMC7198766, “Structure-Activity Studies on the Hypertrehalosemic Hormone II of the Stick Insect Carausius morosus (Phasmatodea): Carbohydrate-Mobilization and Cardio-Stimulatory Activities” (Frontiers in Physiology, 2020).
Where “and” joins values, the source holds several entries; their conditions need not be identical. Equal entries are not always repeated. Marks after values point to notes of the source that are not given here.

Tests used:
[1] = test system: Manduca sexta; parameters: method as in Fox and Reynolds, 1991; Ziegler et al., 1991; conditions: in vivo assay, ref Fox and Reynolds, 1991, Ziegler et al.; cited from earlier work
[2] = test system: Locusta migratoria; parameters: method as in Gäde, 1990; conditions: in vivo assay, L. migratoria; ref Gäde, 1990; cited from earlier work
[3] = test system: ligated 6th instar Indian stick insects (Carausius morosus); experiment: Carbohydrate-mobilization (hypertrehalosemic) in vivo assay; conditions: for % Activity relative to the effect of Carmo-HrTH-II (metabolic): 20 pmol peptide injected, carbohydrate increase relative to Carmo-HrTH-II = 100, NS = no significant increase; for Hemolymph carbohydrates, 90 min: 90 min after injection of 20 pmol peptide in 10 μl; for Hemolymph carbohydrates, 90 min / Hemolymph carbohydrates, Difference: neck-ligated 6th instar nymphs; for Hemolymph carbohydrates, Difference: 90 min minus 0 min, 20 pmol peptide in 10 μl injected; for Hemolymph carbohydrates, 0 min: before injection (0 min), 2 h after neck ligation, group later given 20 pmol peptide in 10 μl, 6th instar nymphs
Procedure: Sixth instar nymphs that were 1–2 days before molting were neck-ligated and used in the hypertrehalosemic in vivo assay as described in detail by [Gäde and Lohr (1982)]. Stock peptide solutions (5 pmol μl^–1) were diluted with distilled water to the desired concentration in 10 μl, which was injected into the stick insect nymphs.
In the first series of experiments, various doses of synthetic Carmo-HrTH-II and corpora cardiaca (CC) extract of C. morosus were used to determine the maximal hypertrehalosemic response of C. morosus. Hemolymph samples were taken from 17 to 18 days old 6th instar nymphs 2 h after they were neck-ligated and then 90 min after either CC extract or synthetic Carmo-HrTH-II was injected. Ligated nymphs injected with distilled water served as controls for handling stress. As depicted in Figures 1A,B, various doses of both Carmo-HrTH-II and CC extract increased the level of carbohydrates in the hemolymph in a dose-dependent manner. A dose of 0.04 pmol of synthetic Carmo-HrTH-II and the equivalent of 0.005 pairs of corpora cardiaca (pCC) were sufficient to give significant increases in hemolymph carbohydrates (p < 0.05). […] Doses of 0.1–0.5 pCC gave an average increase of 5.6 ± 0.6 mg carbohydrates ml^–1 hemolymph (Figure 1B); again, statistical analyses reveal no significant difference between the effect of these doses (p > 0.05).
Based on these pilot experiments, we selected a dose of 20 pmol for testing the analogs of Carmo-HrTH-II since such a dose of our lead compound, Carmo-HrTH-II had achieved maximal hypertrehalosemic activity.

[4] = test system: heart of neck-ligated Carausius morosus; parameters: method as in Marco et al., 2018; conditions: ref Marco et al., 2018, cited from earlier work
[5] = test system: heart of neck-ligated Carausius morosus; experiment: Semi-exposed heart bioassay (heart beat rate); assay type: in vivo; conditions: for % Activity relative to the effect of Carmo-HrTH-II (myotropic) / Heart rate, Difference: 20 pmol peptide in 150 μl; for % Activity relative to the effect of Carmo-HrTH-II (myotropic): heart rate increase relative to Carmo-HrTH-II = 100, NS = no significant increase; for Heart rate, Post-application: after application of 20 pmol peptide in 150 μl saline, average of first four counts; for Heart rate, Post-application / Heart rate, Pre-application: neck-ligated stick insects; for Heart rate, Pre-application: in saline before application, semi-exposed heart; for Heart rate, Difference: post- minus pre-application
Procedure: The semi-exposed heart bioassay was carried out as described ([Marco et al., 2018]) with adult stick insects between 1 and 2 months old that were ligated at the neck. Briefly, a ventral incision of the abdomen exposed the ventral cavity with the internal organs; a few drops of stick insect saline (pH 6.6; 15 mM NaCl, 18 mM KCl, 7.5 mM CaCl2, 2 mM HEPES, 50 mM MgCl2, and 184 mM glucose according to [Ejaz and Lange, 2008]) were added to the exposed part. The semi-isolated heart preparation was viewed with a dissecting microscope (12-fold magnification), and the number of observed heart beats (contractions of the heart muscle) was counted during a fixed period using a manual tally counter and a timer. Once the heart had stabilized, saline was replaced with the test solution. For this the peptide stock solution of 5 pmol μl^–1 was diluted with stick insect saline to the desired concentration and a final volume of 150 μl was used for each test.
Heart rates under normal saline served as controls. The change in heart rate after the application of the test solution was calculated as an average of the first four counts and was compared to the average heart rates counted in saline before the application of the test solution. This comparison of change in heart rates was done for all the peptides tested.

[6] = test system: Blaberus discoidalis; parameters: method as in Hayes and Keeley, 1990; conditions: in vivo assay, cockroach B. discoidalis; ref Hayes and Keeley, 1990; cited from earlier work
[7] = test system: Periplaneta americana; parameters: method as in Gäde, 1990; conditions: in vivo assay, P. americana; ref Gäde, 1990; cited from earlier work

Molecule | Activity relative to the endogenous nonapeptide Manse-AKH [1] | Activity relative to the endogenous decapeptide Locmi-AKH-I [2] | % Activity relative to the effect of Carmo-HrTH-II (metabolic) [3] | Hemolymph carbohydrates, 90 min [3] [mg/mL] | Hemolymph carbohydrates, Difference [3] [mg/mL] | Hemolymph carbohydrates, 0 min [3] [mg/mL] | Average increase of hemolymph carbohydrates ([3]; doses of 7.5–60 pmol (plateau, no significant difference between doses), 90 min) [mg ml^–1] | Dose sufficient to give significant increases in hemolymph carbohydrates ([3]; synthetic peptide injected, 17-18 days old ligated 6th instar nymphs, 90 min, p < 0.05) [pmol] | Doses that increased the heart beat rate significantly and maximally ([4]; ligated stick insects, synthetic peptide) | % Activity relative to the effect of Carmo-HrTH-II (myotropic) [5] | Heart rate, Post-application [5] [beats min^−1] | Heart rate, Pre-application [5] | Heart rate, Difference [5] [beats min^−1] | Fold less active than the endogenous Bladi-HrTH [6] | Activity relative to the endogenous octapeptides Peram-CAH-I and -II [7] | Effect on contraction of the heart ([4]; C. morosus heart, dose-dependent)
pGlu-Leu-Thr-Phe-Thr-Pro-Asn-Trp-Gly-Thr amide [Carmo-HrTH-II, reference compound] | as, or slightly more active than the endogenous nonapeptide Manse-AKH | only slightly less active | 100% | 14.9 ± 1.9 | 5.4 ± 1.1 | 9.4 ± 1.5 | 5.2 ± 0.4 | 0.04 | above 6.67 × 10^–8 M | 100% | 53 ± 5 | 41 beats min^−1 and 41 ± 4 beats min^−1 | 12 ± 5 | more than 300 fold | more or less as active | 
NCC(O)c1ccc(O)cc1 (centres unmarked) [octopamine] |  |  |  |  |  |  |  |  |  |  |  |  |  |  |  | inhibits the contraction of the heart
pGlu-Leu-Asn-Phe-Thr-Pro-Asn-Trp amide [Pyrap-AKH, naturally-occurring AKH octapeptide bioanalog, reference compound] |  |  |  | 9.2 ± 1.8 | 0.5 ± 1.0 | 8.7 ± 1.8 |  |  |  | 16% | 41 ± 4 | 39 ± 5 beats min^−1 | 2 ± 2 |  |  | 
pGlu-Leu-Thr-Ala-Thr-Pro-Asn-Trp-Gly-Thr amide [Ala^4-Carmo-HrTH-II] |  |  |  | 9.1 ± 2.4 | 0.5 ± 2.3 | 8.6 ± 2.2 |  |  |  |  | 41 ± 4 | 40 ± 4 beats min^−1 | 1 ± 1 |  |  | 
pGlu-Leu-Thr-Phe-Thr-Pro-Asn-Trp*-Gly-Thr amide [Carmo-HrTH-I, endogenous hormone isolated from C. morosus CC; Trp^8 C-mannosylated, reference compound] |  |  | 91^b % | 12.9 ± 1.9 | 4.9 ± 1.1 | 8.0 ± 1.6 |  |  |  | 108^b % | 54 ± 2 | 41 beats min^−1 and 41 ± 4 beats min^−1 | 13 ± 2 |  |  | 
pGlu-Ala-Thr-Phe-Thr-Pro-Asn-Trp-Gly-Thr amide [Ala^2-Carmo-HrTH-II] |  |  | 100% | 16.8 ± 1.7 | 5.4 ± 1.7 | 11.4 ± 2.3 |  |  |  |  | 42 ± 5 | 42 ± 7 beats min^−1 | 0 ± 2 |  |  | 
